From patent publication US20240002445A1, “TYROSYL-LOCK PEPTIDES” (The United States of America,as represented by the …, priority 2020, published 2024) come the findings set out here.

One series has as its target T1, FL-TDP1 (Homo sapiens, UniProt Q9NUW8).
T1 construct: either full-length TDP1 or Δ1-147TDP1 was diluted to 1×
The experiment in a line: FL-TDP1 FRET assay without TCEP (recifin A and analogues). It counts as biochemical. Particulars: for TDP1 inhibitory activity (FRET assay): TCEP omitted; for IC50: IC50 μM (FL-TDP1 inhibitory activity), 1 nM FL-TDP1, 0.25 μM substrate, T=15 min, 1XPBS pH 7.4, 80 mM KCl, -TCEP, high-test concentration 20 μM. The protocol:
For these FRET assays, TCEP was omitted from the reaction buffer. Peptides were evaluated for FL-TDP1 inhibitory activity using an 8-pt, 10^0.5 dilution series at a high-test concentration of 20 μM. RXN conditions: 1 nM FL-TDP1, 0.25 μM substrate, T=15 min.; rxn buffer (1XPBS pH 7.4, 80 mM KCl) (-TCEP). See FIGS. 21A and 21B and FIG. 22.

Series [1] concerns T2, recifin A (native, isolated from the marine sponge Axinella sp.).
T2 sequence: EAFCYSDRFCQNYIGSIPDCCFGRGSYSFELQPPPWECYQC

Series [2] addresses full-length recombinant human Tyrosyl-DNA phosphodiesterase 1 (TDP1) (human) (UniProt Q9NUW8). Briefly: cell-based or functional assay.
The target in another series is carboxypeptidase Y (Saccharomyces cerevisiae, UniProt P00729). The settings on record: native form, 1:18 enzyme to target protein by mass, 20 minutes at room temperature.
Chain of carboxypeptidase Y (P00729 112-532, species assumed): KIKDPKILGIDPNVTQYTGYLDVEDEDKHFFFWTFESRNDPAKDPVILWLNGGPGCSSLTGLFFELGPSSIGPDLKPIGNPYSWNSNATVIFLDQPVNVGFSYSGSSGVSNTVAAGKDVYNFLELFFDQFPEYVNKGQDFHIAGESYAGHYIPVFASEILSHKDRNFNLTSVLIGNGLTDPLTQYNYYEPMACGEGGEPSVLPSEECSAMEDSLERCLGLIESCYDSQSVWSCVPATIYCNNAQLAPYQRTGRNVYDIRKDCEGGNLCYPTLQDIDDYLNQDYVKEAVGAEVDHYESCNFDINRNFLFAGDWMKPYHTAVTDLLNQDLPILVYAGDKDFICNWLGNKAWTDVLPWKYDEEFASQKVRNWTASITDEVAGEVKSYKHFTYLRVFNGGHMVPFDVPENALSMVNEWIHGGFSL
The target in another series is T3, Δ147TDP1 (Homo sapiens, UniProt Q9NUW8).
T3 construct: a truncated catalytic domain of TDP1 lacking the N-terminal regulatory domain (Δ1-147)
T3 sequence (Q9NUW8 148-608, stated change not applied): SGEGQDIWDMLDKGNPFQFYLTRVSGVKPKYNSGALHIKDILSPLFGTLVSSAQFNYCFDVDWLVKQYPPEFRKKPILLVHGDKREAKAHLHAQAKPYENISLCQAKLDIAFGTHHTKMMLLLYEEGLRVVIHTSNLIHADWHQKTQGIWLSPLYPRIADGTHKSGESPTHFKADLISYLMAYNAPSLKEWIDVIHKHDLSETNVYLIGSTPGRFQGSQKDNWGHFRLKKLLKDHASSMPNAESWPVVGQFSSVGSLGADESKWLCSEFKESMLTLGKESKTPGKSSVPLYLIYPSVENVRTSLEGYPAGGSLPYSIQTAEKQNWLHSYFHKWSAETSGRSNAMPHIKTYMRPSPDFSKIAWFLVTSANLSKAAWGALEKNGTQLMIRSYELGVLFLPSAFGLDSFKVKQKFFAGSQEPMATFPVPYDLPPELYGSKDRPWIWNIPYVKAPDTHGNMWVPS
The experiment in a line: FRET-based TDP1 enzymatic activity inhibition assay, N-terminally truncated TDP1. It counts as biochemical. The method, then:
(§1) FRET-based TDP1 enzymatic activity inhibition assays were carried out as previously described (Bermingham, et al., SLAS Discov., 2472555217717200 (2017)). Briefly, for Michaelis-Menten analysis, an eight-point FRET substrate concentration response was used (from 0.01-3 μM substrate) in the presence of 0, 0.2, 0.5, 1, and 2 μM recifin A. Quadruplicate reactions were setup in which a 1.25× concentration of either full-length TDP1 or Δ1-147TDP1 was diluted to 1× by the addition of a […] solution of substrate and recifin A to reach a final concentration of 0.5 nM TDP1 (full length or truncated) and the indicated substrate and recifin A concentration in 1× Phosphate Buffered Saline (PBS) pH 7.4, 80 mM potassium chloride, 1 mM TCEP, referred to as “1× TDP1 buffer.” After dilution these reactions were transferred to a black small volume 384-well plate (Greiner Bio-One, Monroe, NC). Fluorescence measurements (excitation: 520 nm, emission: 550 nm) were taken at 30 sec intervals for 1 h using a i3x SpectraMax plate reader (Molecular Devices, Sunnyvale, CA). Reaction progression curves for each condition were examined for linearity over the time course and the reaction rate for each condition was determined by linear regression using GraphPad Prism software (version 8.3.1, San Diego, CA). Reaction rates were replotted in terms of substrate concentration, and kinetic parameters for each recifin A treatment concentration were calculated by non-linear regression (GraphPad Prism) according to the following equation: […]
(§2) For IC50 determinations, a 12-point concentration response curve was prepared over a recifin A concentration range of 0-15 μM. This was accomplished by diluting a 5X stock solution of recifin A and TDP1 FRET substrate into a stock solution of 1.25× TDP1 buffer containing 0.625 nM full-length TDP1 or Δ147TDP1, bringing the final concentration to 1× TDP1 buffer, 0.5 nM enzyme (or a no enzyme control), 1 μM FRET substrate, and 0-15 μM recifin A. Reactions were setup in triplicate using the same plates and plate reader described above for the kinetic measurements. Reaction wells were read at 0 (T0) and 15 (T15) min after initiation. The T15 data was background corrected by subtracting T0 fluorescence measurements. Corrected data was normalized to a control with no enzyme present (0% activity) and a vehicle control (100% activity). Recifin A concentrations were converted to logio-values and normalized data were fitted to the following equation by nonlinear regression (least squares fit with a variable slope) and an IC50 value was calculated using GraphPad Prism software: […]

In the next series the target is chymotrypsin (Bos taurus, UniProt P00766). The settings on record: native form, 1:20 enzyme to target protein by mass, overnight at room temperature.
In series [3] the target is T4, full-length TDP1 (Homo sapiens, UniProt Q9NUW8). Briefly: biochemical.
T4 sequence (Q9NUW8 whole entry): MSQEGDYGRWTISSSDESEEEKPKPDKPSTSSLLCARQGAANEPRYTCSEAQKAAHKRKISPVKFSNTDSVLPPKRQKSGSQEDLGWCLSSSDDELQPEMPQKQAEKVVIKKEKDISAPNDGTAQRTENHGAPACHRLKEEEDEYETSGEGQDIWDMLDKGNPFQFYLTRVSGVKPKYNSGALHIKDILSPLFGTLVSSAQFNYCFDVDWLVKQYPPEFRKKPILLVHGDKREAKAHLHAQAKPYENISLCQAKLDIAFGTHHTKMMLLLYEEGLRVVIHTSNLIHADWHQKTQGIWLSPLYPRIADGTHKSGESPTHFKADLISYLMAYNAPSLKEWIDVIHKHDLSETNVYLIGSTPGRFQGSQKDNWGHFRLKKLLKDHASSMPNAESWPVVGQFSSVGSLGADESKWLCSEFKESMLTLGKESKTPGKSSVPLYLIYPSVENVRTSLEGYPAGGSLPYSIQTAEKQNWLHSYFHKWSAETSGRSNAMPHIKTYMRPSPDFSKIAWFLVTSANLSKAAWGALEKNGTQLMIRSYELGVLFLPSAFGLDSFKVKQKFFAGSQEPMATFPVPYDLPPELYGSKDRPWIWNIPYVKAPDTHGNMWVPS
Method: (§3) The reactions were carried out in a final volume of 10 μL in 1×LMP 1 reaction buffer (50 mM Tris-HCl, pH 7.5, 80 mM KCl, 2 mM EDTA, 1 mM DTT, 40 μg/mL BSA, 0.01% TWEEN 20) at room temperature for 15 minutes and terminated by adding 10 μ−L of 2×stop buffer (99.5% formamide, 10 mM EDTA, 0.01% methylene blue, 0.01% bromophenol blue).
The nature of series [4]: Stability of recifin A to handling, solvents and RP-HPLC.
The target of series [5] is T5, human TDP1 complemented DT40 knockout whole cell extracts (hTDP1 WCE) (Homo sapiens, UniProt Q9NUW8).
T5 construct: expressed in transfected cells; host or cells: TDP1-/- DT40 (chicken B-lymphocyte) cells complemented with human TDP1; whole cell extract
T5 sequence (Q9NUW8 whole entry): as above
Briefly: TDP1 inhibition assay with radiolabeled oligonucleotide in whole cell extract. The settings on record: 2 μg/mL hTDP1 WCE from TDP1-/- DT40 cells complemented with human TDP1. It counts as biochemical.
Method: as §3

Series [6] deals with pyroglutamate aminopeptidase (Pyrococcus furiosus, UniProt O73944).
Chain of pyroglutamate aminopeptidase (O73944 whole entry): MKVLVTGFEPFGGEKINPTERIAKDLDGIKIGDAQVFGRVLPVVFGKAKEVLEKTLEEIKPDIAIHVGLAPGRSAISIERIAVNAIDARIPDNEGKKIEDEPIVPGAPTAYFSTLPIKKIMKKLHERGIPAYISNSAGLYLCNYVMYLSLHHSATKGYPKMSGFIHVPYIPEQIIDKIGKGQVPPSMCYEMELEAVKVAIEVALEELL
The next series addresses TDP1 (Homo sapiens, UniProt Q9NUW8). Briefly: High-throughput biochemical assay for inhibition of TDP1 enzymatic activity (bioassay-guided fractionation). The settings on record: comparison among peptide constituents of fractions A-D of Axinella sp. aqueous extract. The method, then:
The sponge Axinella sp., (Voucher #ID 0CDN7410, NSC #C020686) was harvested at a depth of 40 m at the Thunderbolt reef, south-southwest of Cape Recife Nature Reserve, Port Elizabeth, South Africa. A voucher specimen for this collection is maintained at the Smithsonian Institution (Suitland, MD). Aqueous extracts of Axinella sp. were provided by the Natural Products Branch of the National Cancer Institute and were prepared as previously reported (McCloud, Molecules, 15(7): 4526-63 (2010)). The dried extract was reconstituted in water at a concentration of 10 mg/mL and then subjected to vacuum-assisted chromatography using Bakerbond C4 wide-pore media (Mallinckrodt Baker, Inc., Phillipsburg, NJ). Compounds were eluted using a stepwise methanol gradient of five column volumes (CV) each of 100% water, 40% methanol, 60% methanol and 100% methanol, and the resulting fractions were evaporated under vacuum and then lyophilized to dryness. A high-throughput biochemical assay for inhibition of TDP1 enzymatic activity was utilized to track fraction activity (Bermingham, et al., SLAS Discov., 2472555217717200 (2017)). […]

For the next series, the target named is trypsin (Bos taurus, UniProt P00760). The settings on record: native form, 1:20 enzyme to target protein by mass, overnight at 37° C.
Chain of trypsin (P00760 24-246): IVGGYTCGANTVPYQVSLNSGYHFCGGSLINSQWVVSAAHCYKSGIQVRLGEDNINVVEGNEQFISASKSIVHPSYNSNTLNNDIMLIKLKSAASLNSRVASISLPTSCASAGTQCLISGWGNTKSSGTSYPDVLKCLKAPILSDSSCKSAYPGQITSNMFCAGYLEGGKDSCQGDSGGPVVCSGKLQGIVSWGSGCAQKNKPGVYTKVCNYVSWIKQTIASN
Series [7] addresses T4, full-length TDP1. The experiment in a line: FRET-based TDP1 enzymatic activity inhibition assay, full-length TDP1 (1x TDP1 buffer with TCEP). Particulars: for effect on Vmax of full-length TDP1 / effect on Km of full-length TDP1: steady-state analysis; for effect on Km of full-length TDP1: sub-micromolar concentrations of recifin A. On the set-up: either full-length TDP1 or Δ1-147TDP1 was diluted to 1×. It counts as biochemical. The protocol: as §1, §2

Series [8] concerns the target N-terminal truncated TDP1 (Δ147TDP1) (UniProt Q9NUW8). Briefly: cell-based or functional assay.
Setting [9] is: full-length TDP1, Michaelis-Menten analysis, 0-2 μM recifin A.

Entries after “also recorded” stand apart in the source; their conditions may differ. Bridge positions count the residues as written; N and C are the ends. Square brackets hold non-standard residues; d marks the D form. Ends that are not written are not given here. Peptide text beside a SMILES is read from it. pGlu = O=C1CC[C@@H](C(=O)O)N1

Chain of full-length recombinant human Tyrosyl-DNA phosphodiesterase 1 (TDP1) (human) (Q9NUW8 whole entry): as the sequence (Q9NUW8 whole entry) above
T1 sequence (Q9NUW8 whole entry): as above
Chain of N-terminal truncated TDP1 (Δ147TDP1) (Q9NUW8 148-608, stated change not applied): as the sequence (Q9NUW8 148-608, stated change not applied) above
Chain of TDP1 (Q9NUW8 whole entry): as the sequence (Q9NUW8 whole entry) above

Turning to `CC[C@H](C)[C@@H]1NC(=O)[C@H](Cc2ccc(O)cc2)NC(=O)[C@H](CC(N)=O)NC(=O)[C@H](CCC(N)=O)NC(=O)[C@@H]2CSSC[C@@H]3NC(=O)[C@H](CCC(=O)O)NC(=O)[C@H](Cc4c[nH]c5ccccc45)NC(=O)[C@@H]4CCCN4C(=O)[C@@H]4CCCN4C(=O)[C@@H]4CCCN4C(=O)[C@H](CCC(N)=O)NC(=O)[C@H](CC(C)C)NC(=O)[C@H](CCC(=O)O)NC(=O)[C@H](Cc4ccccc4)NC(=O)[C@H](CO)NC(=O)[C@H](Cc4ccc(O)cc4)NC(=O)[C@H](CO)NC(=O)CNC(=O)[C@H](CCCNC(=N)N)NC(=O)CNC(=O)[C@H](Cc4ccccc4)NC(=O)[C@H](CSSC[C@@H](C(=O)O)NC(=O)[C@H](CCC(N)=O)NC(=O)[C@H](Cc4ccc(O)cc4)NC3=O)NC(=O)[C@H](CSSC[C@H](NC(=O)[C@H](Cc3ccccc3)NC(=O)[C@H](C)N)C(=O)N[C@@H](Cc3ccc(O)cc3)C(=O)N[C@@H](CO)C(=O)N[C@@H](CC(=O)O)C(=O)N[C@@H](CCCNC(=N)N)C(=O)N[C@@H](Cc3ccccc3)C(=O)N2)NC(=O)[C@H](CC(=O)O)NC(=O)[C@@H]2CCCN2C(=O)[C@H]([C@@H](C)CC)NC(=O)[C@H](CO)NC(=O)CNC1=O` [Truncated, Recifin (3-42)] (H-AFCYSDRFCQNYIGSIPDCCFGRGSYSFELQPPPWECYQC-OH; disulfide 3-19, 9-37, 20-40), on FL-TDP1, the “TDP1 inhibitory activity (FRET assay)” value is “no TDP1 inhibitory activity” and the IC50 (as a rule, the midpoint of a concentration-inhibition curve) was more than 10 µM.

N-terminal truncated TDP1 (Δ147TDP1): in series [1], the “Km and Vmax of the Δ147TDP1 FRET assay” value was “recifin A had overlapping 95% confidence intervals for both Km and Vmax with the untreated controls, indicating that recifin A does not affect the enzymatic activity of truncated TDP1”.

Consider Recifin (3-42) (peptide), for which the IC50 µM, FL-TDP1 FRET inhibition assay without TCEP in [2] is more than 10 µM.

With [Ala10] recifin (peptide), the IC50 µM, FL-TDP1 FRET inhibition assay without TCEP in [2] is more than 10 µM.

For [Pro1] recifin (peptide), the IC50 µM, FL-TDP1 FRET inhibition assay without TCEP in series [2] is 0.69 µM.

Consider “[pGlu]EAFCYSDRFCQNYIGSIPDCCFGRGSYSFELQPPPWECYQC (disulfide 5-21, 11-39, 22-42) [recifin A]”, for which the “digestion with carboxypeptidase Y” value on carboxypeptidase Y is given as “resistant”. Moreover, the “effect on enzymatic activity of truncated TDP1 (Δ147TDP1)” value on Δ147TDP1 (FRET assay, TDP1 lacking N-terminal regulatory domain (Δ1-147)) was “does not affect the enzymatic activity; also recorded: not affecting the activity”. Also, the inhibition (in general, the change of the read-out against control, counted positive when it falls) at 1.5 µM at Δ147TDP1 (at the highest concentration (1500 nM), read-out: maximal inhibition of Δ147TDP1) is approximately 20%. For the same compound, on Δ147TDP1 (Δ147TDP1 FRET assay), the “effect on Km of Δ147TDP1” value is given as “did not affect” and the “effect on Vmax of Δ147TDP1” value is recorded as “did not affect”. Besides, at chymotrypsin, the digestion with chymotrypsin result is “resistant”. This compound also registered an IC50 against full-length TDP1 [3] of 2400 nM. Further, the IC50 on FL-TDP1 amounted to 1.63 µM. The activity after processing result in series [4] (DTP extract preparation, drying under nitrogen gas at room temperature, freezing at -20° C., -80° C. and on dry ice, lyophilization, freezing and thawing) was “still active”. For the same compound, in [4] (room temperature and 40° C., with and without 0.05% v/v TFA (pH approx. 2)), the “stability during RP-HPLC procedures” value was “stable”. In addition, in series [4] (water, PBS pH 7.4, Tris HCl pH 8.0, methanol, acetonitrile, DMSO), the “stability in solvents and buffers” value is reported as “stable”. Further, the “inhibition of TDP1 processing of the radiolabeled oligonucleotide in whole-cell extract” value in [5] is listed as “retained the ability to inhibit”. Besides, in series [6] (native form, 2 microgram peptide to 0.2 milliunits enzyme, PBS pH 7.4, 24 hour at 37 C), the “digestion with pyroglutamate aminopeptidase” value is on record as “resistant”. Also, the “digestion with pyroglutamate aminopeptidase: N-terminal pyroglutamate residue” value in series [6] (same conditions in phosphate buffer containing 10 mM DTT) is listed as “fully removed”. The “TDP1 inhibitory activity of Axinella sp. peptides/fractions” value at TDP1 was “most active”. The digestion with trypsin result at trypsin is reported as “resistant”. Besides, at full-length TDP1 [7], the half-maximal inhibitory concentration (IC50) was determined as 190 nM, the “effect on Vmax of full-length TDP1” value is listed as “modest increase” and the “effect on Km of full-length TDP1” value is given as “increased”. Also, at full-length TDP1 [7] (setting [9]), the “increase in Km for the substrate” value is recorded as “approximately 6 fold” and the “increase in observed Vmax” value was “approximately 1.6 fold”. Besides, at full-length TDP1 [7] (listed as Recifin A), the “effect on Km of full-length TDP1” value is recorded as “in-creased” and the “effect on Vmax of full-length TDP1” value is reported as “in-creased”.

As to “[pGlu]EAFCYSDRFCQNYIGSIPDCCFGRGSYSFELQPPPWECYQC-OH (disulfide 5-21, 11-39, 22-42) [Synthetic, Recifin]”, on FL-TDP1, the “TDP1 inhibitory activity (FRET assay)” value was “have TDP1 inhibitory activity” and half-maximal inhibition (IC50) was put at 0.5 µM.

As to “full-length recombinant human Tyrosyl-DNA phosphodiesterase 1 (TDP1)”, in series [1], the “effect on the observed Vmax, FRET steady-state kinetics” value is “approximately 1.6-fold higher” and the “recifin A-dependent increase in the Km for the substrate, FRET steady-state kinetics” value is on record as “approximately 6-fold higher”.

Consider “recifin A (native, isolated from the marine sponge Axinella sp.) (peptide)”, for which the maximal inhibition of enzymatic activity, FRET assay in series [8] was 20%. In series [2], the IC50 µM, FL-TDP1 FRET inhibition assay without TCEP was found to be 1.63 µM; the IC50, inhibition of TDP1 cleavage of a 5'-radiolabeled oligonucleotide DNA substrate containing a 3'-phosphotyrosyl residue (gel assay) worked out at 2400 nM; the apparent IC50, FRET-based TDP1 enzymatic activity inhibition assay amounted to 190 nM.

As for synthetic recifin A (peptide), in series [2], the IC50 µM, FL-TDP1 FRET inhibition assay without TCEP is 0.5 µM.
